The numbers were not newly measured in patent US20240042038A1, “FORMULATIONS OF CABAZITAXEL” (Zhuhai Beihai Biotech Co., Ltd., priority 2020, published 2024), which cites them from elsewhere.

SMILES strings stand for the structures.

Regarding `CO[C@H]1C(=O)[C@]2(C)[C@@H](OC)C[C@H]3OC[C@@]3(OC(C)=O)[C@H]2[C@H](OC(=O)c2ccccc2)[C@]2(O)C[C@H](OC(=O)[C@H](O)[C@@H](NC(=O)OC(C)(C)C)c3ccccc3)C(C)=C1C2(C)C` [Cabazitaxel, cabazitaxel], the solubility in alcohol result is recorded as “soluble” and the solubility in water result is recorded as “practically insoluble”.
